Biological target: T1, MAGL (Homo sapiens, UniProt Q99685)
T1 sequence (Q99685 1-303): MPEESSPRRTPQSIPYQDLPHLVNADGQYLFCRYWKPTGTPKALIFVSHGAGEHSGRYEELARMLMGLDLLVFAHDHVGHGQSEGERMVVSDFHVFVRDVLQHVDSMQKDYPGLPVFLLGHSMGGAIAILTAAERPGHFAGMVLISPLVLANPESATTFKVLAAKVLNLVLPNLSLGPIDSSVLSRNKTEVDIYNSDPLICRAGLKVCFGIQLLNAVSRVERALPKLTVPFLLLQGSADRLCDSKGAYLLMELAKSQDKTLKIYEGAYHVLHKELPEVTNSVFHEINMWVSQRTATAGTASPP
Experiment: 2-AG assay (MAGL inhibitory activity, hydrolysis of 2-arachidonoylglycerol to arachidonic acid followed by mass spectrometry)
Assay type: biochemical
Details: 8 μM 2-arachidonoylglycerol, 15 min pre-incubation, 30 min incubation at RT, RapidFire MS readout
How it was run: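 Arachidonic acid released from 8 μM 2-arachidonoylglycerol was quantified by online SPE triple-quadrupole MS (negative ESI, 303.1→259.1), normalised to d8-arachidonic acid internal standard. Reaction ran 30 min at RT after 15 min RT compound pre-incubation with […] MAGL in TRIS/EDTA/Tween-20 buffer, 2.5% DMSO.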

Row | Structure (SMILES) | IC50 [nM]
1 | O=C(N1CC(C23CC(Cc4nnc(C5CC5)[nH]4)(C2)C3)C1)N1CC2(CC(n3cnc(C4CC4)n3)C2)C1 [Example 384, [6-(3-cyclopropyl-1,2,4-triazol-1-yl)-2-azaspiro[3.3]heptan-2-yl]-[3-[3-[(5-cyclopropyl-4H-1,2,4-triazol-3-yl)methyl]-1-bicyclo[1.1.1]pentanyl]azetidin-1-yl]methanone] | 4.88
2 | CS(=O)(=O)c1cc(Cl)ccc1-c1ccc(C2CN(C(=O)N3CC4(CC(c5ccc(C(F)(F)F)nc5)C4)C3)C2)cn1 [Example 386, [3-[6-(4-chloro-2-methylsulfonyl-phenyl)-3-pyridyl]azetidin-1-yl]-[6-[6-(trifluoromethyl)-3-pyridyl]-2-azaspiro[3.3]heptan-2-yl]methanone] | 142
3 | O=C(N1CC2(CCC(Cc3ncc(F)cc3F)C2)C1)N1CC2(CC(n3cnc(C4(O)CC4)n3)C2)C1 (stereo not drawn) [Example 388, [6-[(3,5-difluoro-2-pyridyl)methyl]-2-azaspiro[3.4]octan-2-yl]-[6-[3-(1-hydroxycyclopropyl)-1,2,4-triazol-1-yl]-2-azaspiro[3.3]heptan-2-yl]methanone] | 8.72
4 | COc1cc(C(F)(F)F)ccc1CNC1CN(C(=O)N2CC3(CC(n4cnc(C5(O)CC5)n4)C3)C2)C1 [Example 393, [6-[3-(1-hydroxycyclopropyl)-1,2,4-triazol-1-yl]-2-azaspiro[3.3]heptan-2-yl]-[3-[[2-methoxy-4-(trifluoromethyl)phenyl]methylamino]azetidin-1-yl]methanone] | 401
5 | CC1(Cc2nnc(-c3ccc(C4CN(C(=O)N5CC6(CC(n7cnc(C8(O)CC8)n7)C6)C5)C4)cc3)[nH]2)CC1 [Example 394, [6-[3-(1-hydroxycyclopropyl)-1,2,4-triazol-1-yl]-2-azaspiro[3.3]heptan-2-yl]-[3-[4-[5-[(1-methylcyclopropyl)methyl]-4H-1,2,4-triazol-3-yl]phenyl]azetidin-1-yl]methanone] | 43.7
6 | O=C(N1CC(C23CC(NCC4(C(F)(F)F)CC4)(C2)C3)C1)N1CC2(CC(n3cnc(C4(O)CC4)n3)C2)C1 [Example 395, [6-[3-(1-hydroxycyclopropyl)-1,2,4-triazol-1-yl]-2-azaspiro[3.3]heptan-2-yl]-[3-[3-[[1-(trifluoromethyl)cyclopropyl]methylamino]-1-bicyclo[1.1.1]pentanyl]azetidin-1-yl]methanone] | 14.7
7 | CS(=O)(=O)c1cc(Cl)ccc1-c1ccc(C2CN(C(=O)N3CC4(CC(n5cnc(C6(O)CC6)n5)C4)C3)C2)cc1 [Example 396, [3-[4-(4-chloro-2-methylsulfonyl-phenyl)phenyl]azetidin-1-yl]-[6-[3-(1-hydroxycyclopropyl)-1,2,4-triazol-1-yl]-2-azaspiro[3.3]heptan-2-yl]methanone] | 0.26
8 | O=C(N1CC(c2ccc(N3CC[C@H](C(F)(F)F)C3)nc2)C1)N1CC2(CC(n3cnc(C4(O)CC4)n3)C2)C1 [Example 397, [6-[3-(1-hydroxycyclopropyl)-1,2,4-triazol-1-yl]-2-azaspiro[3.3]heptan-2-yl]-[3-[6-[(3S)-3-(trifluoromethyl)pyrrolidin-1-yl]-3-pyridyl]azetidin-1-yl]methanone] | 14.4
9 | O=C(N1CC(OCc2ccc(S(=O)(=O)C(F)(F)F)cc2F)C1)N1CC2(CC(n3cnc(C4(O)CC4)n3)C2)C1 [Example 398, [3-[[2-fluoro-4-(trifluoromethylsulfonyl)phenyl]methoxy]azetidin-1-yl]-[6-[3-(1-hydroxycyclopropyl)-1,2,4-triazol-1-yl]-2-azaspiro[3.3]heptan-2-yl]methanone] | 34.8
10 | O=C(N1CC(OCc2ccc(S(=O)(=O)C(F)(F)F)cc2)C1)N1CC2(CC(n3cnc(C4(O)CC4)n3)C2)C1 [Example 399, [6-[3-(1-hydroxycyclopropyl)-1,2,4-triazol-1-yl]-2-azaspiro[3.3]heptan-2-yl]-[3-[[4-(trifluoromethylsulfonyl)phenyl]methoxy]azetidin-1-yl]methanone] | 102

Second part, the compound after the results:

Row | IC50 [nM] | Structure (SMILES)
11 | 1.25 | CS(=O)(=O)c1ccc(CC2CC3(C2)CN(C(=O)N2CC4(CC(n5cnc(C6(O)CC6)n5)C4)C2)C3)cc1C(F)(F)F [Example 385, [6-[3-(1-hydroxycyclopropyl)-1,2,4-triazol-1-yl]-2-azaspiro[3.3]heptan-2-yl]-[6-[[4-methylsulfonyl-3-(trifluoromethyl)phenyl]methyl]-2-azaspiro[3.3]heptan-2-yl]methanone]
12 | 196 | N#Cc1cc(C(F)(F)F)ncc1O[C@H]1CCC2(C1)CN(C(=O)N1CC3(CC(n4cnc(C5(O)CC5)n4)C3)C1)C2 [Example 387, 5-[[(6S)-2-[6-[3-(1-hydroxycyclopropyl)-1,2,4-triazol-1-yl]-2-azaspiro[3.3]heptane-2-carbonyl]-2-azaspiro[3.4]octan-6-yl]oxy]-2-(trifluoromethyl)pyridine-4-carbonitrile]
13 | 8.68 | O=C(N1CC2(CCC(Cc3ccc(C(F)(F)F)cn3)C2)C1)N1CC2(CC(n3cnc(C4(O)CC4)n3)C2)C1 (stereo not drawn) [Example 389, [6-[3-(1-hydroxycyclopropyl)-1,2,4-triazol-1-yl]-2-azaspiro[3.3]heptan-2-yl]-[6-[[5-(trifluoromethyl)-2-pyridyl]methyl]-2-azaspiro[3.4]octan-2-yl]methanone]
14 | 30.1 | O=C(N1CC2(CC(Cc3ccc(F)cn3)C2)C1)N1CC2(CC(n3cnc(C4(O)CC4)n3)C2)C1 [Example 390, [6-[(5-fluoro-2-pyridyl)methyl]-2-azaspiro[3.3]heptan-2-yl]-[6-[3-(1-hydroxycyclopropyl)-1,2,4-triazol-1-yl]-2-azaspiro[3.3]heptan-2-yl]methanone]
15 | 14.1 | O=C(N1CC2(CCN(Cc3ccc(C(F)(F)F)cn3)CC2)C1)N1CC2(CC(n3cnc(C4(O)CC4)n3)C2)C1 [Example 391, [6-[3-(1-hydroxycyclopropyl)-1,2,4-triazol-1-yl]-2-azaspiro[3.3]heptan-2-yl]-[7-[[5-(trifluoromethyl)-2-pyridyl]methyl]-2,7-diazaspiro[3.5]nonan-2-yl]methanone]
16 | 197 | O=C(N1CC2(CCN(Cc3ccc(C(F)(F)F)nc3)CC2)C1)N1CC2(CC(n3cnc(C4(O)CC4)n3)C2)C1 [Example 392, [6-[3-(1-hydroxycyclopropyl)-1,2,4-triazol-1-yl]-2-azaspiro[3.3]heptan-2-yl]-[7-[[6-(trifluoromethyl)-3-pyridyl]methyl]-2,7-diazaspiro[3.5]nonan-2-yl]methanone]
17 | 3.91 | O=C(N1CC2(CC(Cc3ncc(F)cc3F)C2)C1)N1CC2(CC(n3cnc(C4(O)CC4)n3)C2)C1 [Example 402, [6-[(3,5-difluoro-2-pyridyl)methyl]-2-azaspiro[3.3]heptan-2-yl]-[6-[3-(1-hydroxycyclopropyl)-1,2,4-triazol-1-yl]-2-azaspiro[3.3]heptan-2-yl]methanone]
18 | 1.25 | CS(=O)(=O)c1ccc(CC2CC3(C2)CN(C(=O)N2CC4(CC(n5cnc(C6(O)CC6)n5)C4)C2)C3)c(F)c1 [Example 403, [6-[(2-fluoro-4-methylsulfonyl-phenyl)methyl]-2-azaspiro[3.3]heptan-2-yl]-[6-[3-(1-hydroxycyclopropyl)-1,2,4-triazol-1-yl]-2-azaspiro[3.3]heptan-2-yl]methanone]
19 | 2.33 | O=C(N1CC2(CC(Cc3ccc(Cl)cn3)C2)C1)N1CC2(CC(n3cnc(C4(O)CC4)n3)C2)C1 [Example 404, [6-[(5-chloro-2-pyridyl)methyl]-2-azaspiro[3.3]heptan-2-yl]-[6-[3-(1-hydroxycyclopropyl)-1,2,4-triazol-1-yl]-2-azaspiro[3.3]heptan-2-yl]methanone]
20 | 169 | CS(=N)(=O)c1ccc(CC2CC3(C2)CN(C(=O)N2CC4(CC(n5cnc(C6(O)CC6)n5)C4)C2)C3)cc1 (stereo not drawn) [Example 405, [6-[3-(1-hydroxycyclopropyl)-1,2,4-triazol-1-yl]-2-azaspiro[3.3]heptan-2-yl]-[6-[[4-(methylsulfonimidoyl)phenyl]methyl]-2-azaspiro[3.3]heptan-2-yl]methanone]
21 | 0.31 | O=C(N1CC2(CC(Cc3ccc(C(F)(F)F)cn3)C2)C1)N1CC2(CC(n3cnc(C4(O)CC4)n3)C2)C1 [Example 408, [6-[3-(1-hydroxycyclopropyl)-1,2,4-triazol-1-yl]-2-azaspiro[3.3]heptan-2-yl]-[6-[[5-(trifluoromethyl)-2-pyridyl]methyl]-2-azaspiro[3.3]heptan-2-yl]methanone]
22 | 27.5 | O=C(N1CC2(CC(Cc3ccc(C(F)(F)F)nn3)C2)C1)N1CC2(CC(n3cnc(C4(O)CC4)n3)C2)C1 [Example 409, [6-[3-(1-hydroxycyclopropyl)-1,2,4-triazol-1-yl]-2-azaspiro[3.3]heptan-2-yl]-[6-[[6-(trifluoromethyl)pyridazin-3-yl]methyl]-2-azaspiro[3.3]heptan-2-yl]methanone]
23 | 24.9 | O=C(N1CC2(CC(Cc3cnc(C(F)(F)F)nc3)C2)C1)N1CC2(CC(n3cnc(C4(O)CC4)n3)C2)C1 [Example 410, [6-[3-(1-hydroxycyclopropyl)-1,2,4-triazol-1-yl]-2-azaspiro[3.3]heptan-2-yl]-[6-[[2-(trifluoromethyl)pyrimidin-5-yl]methyl]-2-azaspiro[3.3]heptan-2-yl]methanone]
24 | 16.3 | CS(=O)(=O)c1cc(F)cc(CC2CC3(C2)CN(C(=O)N2CC4(CC(n5cnc(C6(O)CC6)n5)C4)C2)C3)c1 [Example 411, [6-[(3-fluoro-5-methylsulfonyl-phenyl)methyl]-2-azaspiro[3.3]heptan-2-yl]-[6-[3-(1-hydroxycyclopropyl)-1,2,4-triazol-1-yl]-2-azaspiro[3.3]heptan-2-yl]methanone]

Source: US20240199587A1, “HETEROCYCLIC COMPOUNDS” (Hoffmann-La Roche Inc., priority 2021, published 2024)
